# Measured values: US20050112573A1, “Method of detecting toxic substance” (priority 2001, published 2005)
# Test system: yeast genes (level of expressed mRNA)
# Assay: DNA chip analysis of expressed mRNA of yeast genes after 2 h culture with a toxic chemical substance
# Assay type: cell-based, Saccharomyces cerevisiae S288C
# Description: Yeast (Saccharomyces cerevtisiae S288C (α SUC2mal mel gap2 CUP1)) were cultured at 25° C. on YPD medium (yeast extract 1%, polypepton 2%, glucose 2%). One of toxic chemical substances was added to the cell at logarithmic growth phase, and the cell was further cultured for two hours. Cell was cultured without any chemical substance in the same condition, and was used as control. Concentrations of the chemical substances were defined to inhibit the growth of the yeast but not lead to death.
# After the completion of cultivation, the culture was centrifuged to collect the cells. To the cells, sodium acetate buffer (50 mM sodium acetate, 10 mM EDTA, 1% SDS) was added, and the mixture was shaken at 65° C. for five minutes, followed by returning to room temperature, and obtaining the supernatant, which procedure was repeated two times. To the supernatant, ½ amount of a solution of phenol/chloroform was added, and the mixture was centrifuged to give a supernatant, which was added with an equal amount of chloroform, and the mixture was centrifuged to give a supernatant. To the supernatant, an equal amount of isopropanol containing 0.3 M sodium acetate was added, and the mixture was allowed to stand at room temperature for 30 minutes, after which the mixture was centrifuged to give a sediment of the whole RNAs. Seventy % ethanol was added to the sediment, and the mixture was again centrifuged to give a sediment, which was then dried and dissolved in water. mRNA was isolated from the whole RNAs as followings. In view of the fact that a poly A chain is attached to the 3′ terminus of mRNA, a polynucleotide having a poly T structure which was immobilized on the surface of latex beads was used to trap the mRNA, and then the mRNA was washed and eluted with spine column (Oligotex-dT30<Super>mRNA Purification Kit, Takara). Reverse transcription of the mRNA was conducted with a reverse transcriptase (Super Script II Reverse Transcriptase; catalogue No. 18064-014, GibcoBRL) using fluorescence-labeled nucleotides to give cDNAs that were introduced with Cy3-dUTP or Cy5-dUTP during the reverse transcription.
# The labeled cDNAs were dissolved in TE buffer (10 mM Tris-HCl/1 mM EDTA, pH8.0), and the solution was dropped on the DNA chip containing the whole genes of yeast (DNA Chip Research Inc. Japan) so that the cDNAs were hybridized on the DNA chip at 65° C. for over 12 hours. The fluoresces intensity of the DNA chip was read with a scanner, and the ratio relative to the fluorescence intensity resulting from the absence of chemical substance was estimated as the following, which is shown in Tables 1 to 9: [formula]
# In the Tables, “Intensity” indicated in the rightmost column is a value of the level of expressed mRNA of each gene in control cells as divided by the average level of the expressions of the whole genes.
smiles,measurement,setting,value
"C=CC=O [(14), acrolein]",level of expressed mRNA in the presence of chemical substance/in its absence,gene YAL012W,0.9
same,The level of expressed mRNA in the presence of chemical substance/absence: YAL014C,gene YAL014C,1.8
same,The level of expressed mRNA in the presence of chemical substance/absence: YAL017W,gene YAL017W,1.1
same,The level of expressed mRNA in the presence of chemical substance/absence: YAL018C,gene YAL018C,1.0
same,level of expressed mRNA in the presence of chemical substance/in its absence,gene YAL038W,0.5
same,level of expressed mRNA in the presence of chemical substance/in its absence,gene YAL044C,1.4
same,The level of expressed mRNA in the presence of chemical substance/absence: YAL049C,gene YAL049C,2.0
same,level of expressed mRNA in the presence of chemical substance/in its absence,gene YAL054C,1.3
same,The level of expressed mRNA in the presence of chemical substance/absence: YAR047C,gene YAR047C,1.3
same,The level of expressed mRNA in the presence of chemical substance/absence: YAR064W,gene YAR064W,1.1
same,level of expressed mRNA in the presence of chemical substance/in its absence,gene YAR071W,1.1
same,level of expressed mRNA in the presence of chemical substance/in its absence,gene YBL001C,1.5
same,The level of expressed mRNA in the presence of chemical substance/absence: YBL044W,gene YBL044W,0.9
same,The level of expressed mRNA in the presence of chemical substance/absence: YBL100C,gene YBL100C,0.9
same,The level of expressed mRNA in the presence of chemical substance/absence: YBR012C,gene YBR012C,0.9
same,The level of expressed mRNA in the presence of chemical substance/absence: YBR013C,gene YBR013C,2.5
same,level of expressed mRNA in the presence of chemical substance/in its absence,gene YBR014C,1.2
same,level of expressed mRNA in the presence of chemical substance/in its absence,gene YBR023C,0.8
same,level of expressed mRNA in the presence of chemical substance/in its absence,gene YBR029C,0.9
same,level of expressed mRNA in the presence of chemical substance/in its absence,gene YBR035C,1.3
same,level of expressed mRNA in the presence of chemical substance/in its absence,gene YBR050C,1.3
same,The level of expressed mRNA in the presence of chemical substance/absence: YBR051W,gene YBR051W,1.0
same,The level of expressed mRNA in the presence of chemical substance/absence: YBR063C,gene YBR063C,1.7
same,The level of expressed mRNA in the presence of chemical substance/absence: YBR066C,gene YBR066C,1.1
same,level of expressed mRNA in the presence of chemical substance/in its absence,gene YBR068C,1.8
same,level of expressed mRNA in the presence of chemical substance/in its absence,gene YBR111C,1.6
same,The level of expressed mRNA in the presence of chemical substance/absence: YBR124W,gene YBR124W,1.0
same,level of expressed mRNA in the presence of chemical substance/in its absence,gene YBR126C,0.7
same,The level of expressed mRNA in the presence of chemical substance/absence: YBR129C,gene YBR129C,1.6
same,level of expressed mRNA in the presence of chemical substance/in its absence,gene YBR145W,2.2
same,The level of expressed mRNA in the presence of chemical substance/absence: YBR162C,gene YBR162C,0.5
same,level of expressed mRNA in the presence of chemical substance/in its absence,gene YBR183W,1.3
same,level of expressed mRNA in the presence of chemical substance/in its absence,gene YBR222C,0.5
same,The level of expressed mRNA in the presence of chemical substance/absence: YBR255W,gene YBR255W,1.1
same,The level of expressed mRNA in the presence of chemical substance/absence: YBR281C,gene YBR281C,0.9
same,The level of expressed mRNA in the presence of chemical substance/absence: YBR287W,gene YBR287W,0.8
same,level of expressed mRNA in the presence of chemical substance/in its absence,gene YBR299W,1.4
same,level of expressed mRNA in the presence of chemical substance/in its absence,gene YCL009C,0.7
same,The level of expressed mRNA in the presence of chemical substance/absence: YCL044C,gene YCL044C,1.0
same,The level of expressed mRNA in the presence of chemical substance/absence: YCL056C,gene YCL056C,2.2
same,level of expressed mRNA in the presence of chemical substance/in its absence,gene YCL064C,0.8
same,The level of expressed mRNA in the presence of chemical substance/absence: YCR007C,gene YCR007C,1.7
same,level of expressed mRNA in the presence of chemical substance/in its absence,gene YCR037C,0.8
same,level of expressed mRNA in the presence of chemical substance/in its absence,gene YCR048W,0.9
same,level of expressed mRNA in the presence of chemical substance/in its absence,gene YCR098C,1.1
same,level of expressed mRNA in the presence of chemical substance/in its absence,gene YDL022W,0.8
same,The level of expressed mRNA in the presence of chemical substance/absence: YDL046W,gene YDL046W,1.2
same,The level of expressed mRNA in the presence of chemical substance/absence: YDL089W,gene YDL089W,1.2
same,The level of expressed mRNA in the presence of chemical substance/absence: YDL173W,gene YDL173W,2.1
same,The level of expressed mRNA in the presence of chemical substance/absence: YDL193W,gene YDL193W,1.1
same,The level of expressed mRNA in the presence of chemical substance/absence: YDL233W,gene YDL233W,1.1
same,level of expressed mRNA in the presence of chemical substance/in its absence,gene YDR009W,1.5
same,level of expressed mRNA in the presence of chemical substance/in its absence,gene YDR019C,1.6
same,The level of expressed mRNA in the presence of chemical substance/absence: YDR071C,gene YDR071C,2.0
same,The level of expressed mRNA in the presence of chemical substance/absence: YDR078C,gene YDR078C,1.8
same,The level of expressed mRNA in the presence of chemical substance/absence: YDR090C,gene YDR090C,0.9
same,The level of expressed mRNA in the presence of chemical substance/absence: YDR109C,gene YDR109C,1.0
